Data published in US6849598B1, “Therapeutic compositions comprising bactericidal/permeability-increasing (BPI) protein products” (XOMA, priority 1995, dated 2005).
Values after ≈ are worked out from the molar mass of the structure shown. Where two headings read alike, the source gives them in different places.

Tests used:
S. pneumoniae = experiment: Antibiotic susceptibility (MIC, Sensititre Trays) with rBPI21 poloxamer formulations; type: cell-based; conditions: for MIC: Streptococcus pneumoniae, read-out: Minimum Inhibitory Concentration
Experimental: The effect of therapeutic compositions of rBPI21 formulated with poloxamer, with or without EDTA, was evaluated on the antibiotic susceptibility of the multiple drug resistant A. baumannii, S. pneumoniae, E. faecium and P. aeruginosa organisms of Example 5. Therapeutic compositions were prepared containing 2 mg/mL rBPI21, (5 mM sodium citrate, 150 mM NaCl) with a 0.2% (w/v) concentration of PLURONIC F68, P103, P104, P105 or P123. The effect on the antibiotic susceptibility of the organisms was determined in Mueller-Hinton Broth plus Cations (CSMHB, Remel), or 40% pooled human serum in CSMHB (Sigma, St. Louis, Mo.), as follows.
Isolated colonies of the organism from overnight cultures were suspended in Microscan® Inoculum Water to a concentration equivalent to a 0.5 McFarland Standard (approximately 1×10^8 CFU/ml), determined using a Microscan® turbidimeter. Aliquots were transferred to either CSMHB or 40% pooled human serum in CSMHB. Each tube contained either a final concentration of 16 μg/mL rBPI21 or an equivalent volume of control buffer. Minimal inhibitory concentrations (MIC) for each antibiotic tested, i.e. the lowest concentration of antibiotic which inhibits visible growth, were determined using gram-negative (MB and MC) and gram-positive (MA) Sensititre Trays (Radiometer America, Westlake, Ohio), which allow for the rapid and simultaneous survey of a broad spectrum of standard antibiotics. Any other antimicrobial panel systems known in the art, such as the Microscan® (Dade Microscan, Sacramento, Calif.), Pasco (DIFCO, Detroit, Mich.) and Alamar (Alamar, Sacramento, Calif.) systems, may alternatively be used to assay for antibiotic susceptibility.
Tables 12-15 below display a summary of the results of the antibiotic screening panels, reported for each strain tested as the MIC of the tested antibiotics in the presence of the indicated rBPI21 therapeutic composition. The antibiotic susceptibility standards (interpretation of an MIC as clinically resistant (R), intermediate (I) or susceptible (S) according to NCCLS standards) applicable to the organism tested appear in superscript next to the MIC.

gram-negative bacteria = conditions: broad range of gram-negative bacteria; Elsbach and Weiss (1992); cited from earlier work
[1] = test system: gram-positive organisms (Staphylococcus aureus, Staphylococcus epideimidis, Streptococcus faecalis, Bacillus subtilis, Micrococcus Iysodeikticus, Listeria …); conditions: BPI at 10^−6 M or 160 μg/ml; pH of either 7.0 or 5.5; cited from earlier work
[2] = test system: Candida albicans and Candida parapsilosis; conditions: BPI at 10^−6 M; pH 7.0 or 5.5; cited from earlier work
[3] = test system: human, rabbit and sheep red blood cells and several human tumor cell lines; conditions: BPI at 10^−6 M; cited from earlier work
[4] = CSMHB, 16 μg/mL rBPI21 with F68
[5] = CSMHB, 16 μg/mL rBPI21 with P103
[6] = CSMHB, 16 μg/mL rBPI21 with P104
[7] = CSMHB, 16 μg/mL rBPI21 with P105
[8] = CSMHB, 16 μg/mL rBPI21 with P123
[9] = Serum, 16 μg/mL rBPI21 with F68
[10] = Serum, 16 μg/mL rBPI21 with P103
[11] = Serum, 16 μg/mL rBPI21 with P104
[12] = Serum, 16 μg/mL rBPI21 with P105
[13] = Serum, 16 μg/mL rBPI21 with P123

Cc1onc(-c2ccccc2)c1C(=O)N[C@@H]1C(=O)N2[C@@H]1SC(C)(C)[C@@H]2C(=O)O [Oxacillin]
susceptibility interpretation of MIC (superscript) (S. pneumoniae; [4]): R | susceptibility interpretation of MIC (superscript) (S. pneumoniae; [5]): S | susceptibility interpretation of MIC (superscript) (S. pneumoniae; [6]): S | susceptibility interpretation of MIC (superscript) (S. pneumoniae; [7]): S | susceptibility interpretation of MIC (superscript) (S. pneumoniae; [8]): S | susceptibility interpretation of MIC (superscript) (S. pneumoniae; CSMHB, Control (no BPI)): R | susceptibility interpretation of MIC (superscript) (S. pneumoniae; [9]): R | susceptibility interpretation of MIC (superscript) (S. pneumoniae; [10]): R | susceptibility interpretation of MIC (superscript) (S. pneumoniae; [11]): R | susceptibility interpretation of MIC (superscript) (S. pneumoniae; [12]): R | susceptibility interpretation of MIC (superscript) (S. pneumoniae; [13]): R | susceptibility interpretation of MIC (superscript) (S. pneumoniae; Serum, Control (no BPI)): R | MIC (S. pneumoniae; [4]): 32 µg/mL (≈ 79.7 µM) | MIC (S. pneumoniae; [5]): < 0.25 µg/mL | MIC (S. pneumoniae; [6]): 0.5 µg/mL (≈ 1.25 µM) | MIC (S. pneumoniae; [7]): 1 µg/mL (≈ 2.49 µM) | MIC (S. pneumoniae; [8]): 0.5 µg/mL (≈ 1.25 µM) | MIC (S. pneumoniae; CSMHB, Control (no BPI)): 32 µg/mL (≈ 79.7 µM) | MIC (S. pneumoniae; [9]): > 32 µg/mL | MIC (S. pneumoniae; [10]): 32 µg/mL (≈ 79.7 µM) | MIC (S. pneumoniae; [11]): 32 µg/mL (≈ 79.7 µM) | MIC (S. pneumoniae; [12]): 32 µg/mL (≈ 79.7 µM) | MIC (S. pneumoniae; [13]): 32 µg/mL (≈ 79.7 µM) | MIC (S. pneumoniae; Serum, Control (no BPI)): 32 µg/mL (≈ 79.7 µM)

B1: BPI: bactericidal/permeability-increasing protein isolated from granules of mammalian polymorphonuclear leukocytes (protein, UniProt P17213 32-487, looked up)
Bactericidal …: VNPGVVVRISQKGLDYASQQGTAALQKELKRIKIPDYSDSFKIKHLGKGHYSFYSMDIREFQLPSSQISMVPNVGLKFSISNANIKISGKWKAQKRFLKMSGNFDLSIEGMSISADLKLGSNPTSGKPTITCSSCSSHINSVHVHISKSKVGWLIQLFHKKIESALRNKMNSQVCEKVTNSVSSELQPYFQTLPVMTKIDSVAGINYGLVAPPATTAETLDVQMKGEFYSENHHNPPPFAPPVMEFPAAHDRMVYLGLSDYFFNTAGLVYQEAGVLKMTLRDDMIPKESKFRLTTKFFGTFLPEVAKKFPNMKIQIHVSASTPPHLSVQPTGLTFYPAVDVQAFAVLPNSSLASLFLIGMHTTGSMEVSAESNRLVGELKLDRLLLELKHSNIGPFPVELLQDIMNYIVPILVLPRVNEKLQKGFPLPTPARVQLYNVVLQPHQNFLLFGADVVYK
concentrations at which BPI exhibits anti-bacterial activity (as low as) (gram-negative bacteria): 10^−8 to 10^−9 M | toxic effect on gram-positive organisms [1]: no toxic effect | toxic effect on fungi [2]: no toxic effect | toxicity to higher eukaryotic cells [3]: non-toxic
